The text below walks through data of patent US20240207258A1, “HETEROCYCLIC PDK1 INHIBITORS FOR USE TO TREAT CANCER” (Viracta Therapeutics, Inc., priority 2015, published 2024).

In test [1] the target is T1, Full-length phosphorylated PDK1 (Homo sapiens, UniProt O15530).
T1 sequence (O15530 1-556): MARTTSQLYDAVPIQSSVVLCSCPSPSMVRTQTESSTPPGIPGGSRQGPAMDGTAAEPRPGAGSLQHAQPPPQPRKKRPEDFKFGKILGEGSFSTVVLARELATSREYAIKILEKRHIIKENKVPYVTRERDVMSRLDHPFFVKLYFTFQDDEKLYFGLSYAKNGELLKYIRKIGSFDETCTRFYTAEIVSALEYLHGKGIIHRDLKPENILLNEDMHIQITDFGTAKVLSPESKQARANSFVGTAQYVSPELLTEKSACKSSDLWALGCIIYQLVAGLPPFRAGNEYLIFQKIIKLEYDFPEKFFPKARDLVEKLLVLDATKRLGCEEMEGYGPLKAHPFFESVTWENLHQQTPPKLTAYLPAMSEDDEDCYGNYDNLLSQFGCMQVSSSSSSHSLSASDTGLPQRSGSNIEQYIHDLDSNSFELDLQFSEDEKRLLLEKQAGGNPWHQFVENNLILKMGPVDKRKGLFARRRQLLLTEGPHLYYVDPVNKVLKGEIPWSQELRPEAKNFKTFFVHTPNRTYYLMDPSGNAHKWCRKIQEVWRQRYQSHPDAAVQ
Put plainly: Fluorescence polarization PIF-tide binding assay. The settings on record: PDK1 saturating amounts of compound, FIG. 13C. On the technique in general: In fluorescence polarisation assays a small probe gives low polarisation when free and higher when bound to something large.

A further test relates to MV4-11. Put plainly: MTS cell proliferation assay, MV4-11. The note with it: Homo sapiens, MV4-11, 72 h, read-out: MTS proliferation assay (μM). In kind it is cell-based, human. On the procedure:
(§1) Cell proliferation was measured using the CellTiter 96 Aqueous Non-Radioactive Cell Proliferation Assay (Promega). […] MTS is bioreduced by cells into a formazan product that is soluble in tissue culture medium. The absorbance of the formazan product at 490 nm can be measured directly from assay plates without additional processing. The quantity of formazan product as measured by the amount of 490 nm absorbance is directly proportional to the number of living cells in culture. Cells were seeded into 96-well or 384-well clear plates in a volume of 200 μL (96-well) or 50 μL (384-well) at optimized densities ranging from 1,000 to 40,000 cells per well for 96-well plates or 1,200 to 25,000 cells per well for 384-well plates depending on cell-line. After 4-6 hr recovery, serially diluted compounds in DMSO were added to the cells using (0.1% v/v final DMSO concentration). Cells were then grown at 37° C. in a humidified incubator with 5% CO2 for 72 hr. A 20:1 [3-(4,5-dimethylthiazol-2-yl)-5-(3-carboxymethoxyphenyl)-2-(4-sulfophenyl)-2H-tetrazolium](MTS):phenazine methosulfate (PMS) solution in DPBS was made immediately before use, added to each well, and cells were incubated for 1.5 hr at 37° C. The absorbance at 490 nm was then measured using a platereader. Absorbance values were normalized as percent of control (cells incubated in the presence of 0.1% v/v DMSO). Sigmoidal dose-response curves were plotted using log(inhibitor) vs. response—Variable slope (four parameters) model with a top value constrained to 100% (GraphPad Prism version 6.00 for Windows, GraphPad Software, La Jolla California USA). […] To determine potential of compounds of the invention to affect viability of hematological cancers, cell lines representing various tumor types were selected and tested. […] In addition, two murine cell lines were tested: A20 […].
(In general: Formazan colour is commonly taken as a measure of viable cells.)

The test system of another test is Jeko. Kind of test: MTS cell proliferation assay, Jeko. In kind it is cell-based. The note with it: Homo sapiens, 72 hr. How it is done: (§2) Cell proliferation was measured using the CellTiter 96 Aqueous Non-Radioactive Cell Proliferation Assay (Promega). The CellTiter 96® AQueous Assay is composed of solutions of a tetrazolium compound [3-(4,5-dimethylthiazol-2-yl)-5-(3-carboxymethoxyphenyl)-2-(4-sulfophenyl)-2H-tetrazolium, inner salt; MTS] and an electron coupling reagent (phenazine methosulfate) PMS. MTS is bioreduced by cells into a formazan product that is soluble in tissue culture medium. The absorbance of the formazan product at 490 nm can be measured directly from assay plates without additional processing. The quantity of formazan product as measured by the amount of 490 nm absorbance is directly proportional to the number of living cells in culture. Cells were seeded into 96-well or 384-well clear plates in a volume of 200 μL (96-well) or 50 μL (384-well) at optimized densities ranging from 1,000 to 40,000 cells per well for 96-well plates or 1,200 to 25,000 cells per well for 384-well plates depending on cell-line. After 4-6 hr recovery, serially diluted compounds in DMSO were added to the cells using (0.1% v/v final DMSO concentration). Cells were then grown at 37° C. in a humidified incubator with 5% CO2 for 72 hr. A 20:1 [3-(4,5-dimethylthiazol-2-yl)-5-(3-carboxymethoxyphenyl)-2-(4-sulfophenyl)-2H-tetrazolium](MTS):phenazine methosulfate (PMS) solution in DPBS was made immediately before use, added to each well, and cells were incubated for 1.5 hr at 37° C. The absorbance at 490 nm was then measured using a platereader. Absorbance values were normalized as percent of control (cells incubated in the presence of 0.1% v/v DMSO). Sigmoidal dose-response curves were plotted using log(inhibitor) vs. response—Variable slope (four parameters) model with a top value constrained to 100% (GraphPad Prism version 6.00 for Windows, GraphPad Software, La Jolla California USA). […] Curves for compounds that reached a plateau were matched exactly to the measurement points. […] To determine potential of compounds of the invention to affect viability of hematological cancers, cell lines representing various tumor types were selected and tested. Human cell lines tested were: MOLM-13 (acute myeloid leukemia (AML)), MV4-11 (AML), U-2932 (ABC-diffuse large B cell lymphoma), U-937 (histiocytic lymphoma), U-266 (multiple myeloma), RPMI-8226 (multiple myeloma), CMK (megakaryoblastic cell line), SU-DHL-4 (GCB-diffuse large B cell lymphoma), KG1 (AML), Mec-1 (chronic B-cell leukemia), MOLM-16 (AML), Jeko (B-cell lymphoma), WSU-DLCL2 (B-cell lymphoma), JJN3 (plasma cell leukemia), SU-DHL-6 (GCB-diffuse large B cell lymphoma), and Z-138 (mantle cell lymphoma). In addition, two murine cell lines were tested: A20 […].

The subject of another test is A20. Put plainly: MTS cell proliferation assay, A20. In kind it is cell-based, murine. The note with it: Mus musculus; A20, 72 hr. On the procedure:
as §2

A further test has as its system U-2932. Kind of test: MTS cell proliferation assay, U-2932. In kind it is cell-based. The note with it: Homo sapiens, U2932; U-2932, 72 hr. On the procedure:
as §2

In the next test the test system is RPMI-8226. Put plainly: MTS cell proliferation assay, RPMI-8226. The settings on record: Homo sapiens; RPMI-8226, 72 hr. In kind it is cell-based. How it is done:
as §2

Another test relates to MV4-11 cells. Put plainly: Induction of apoptosis (Annexin V / propidium iodide flow cytometry). In kind it is cell-based, human. On the procedure: Cells were seeded in a six-well tissue culture plate in 3 mL complete growth medium (3×10^5 cells/well) and allowed to equilibrate for 1 hr at 37° C. in a humidified incubator with 5% CO2. DMSO (control), test compound, or doxorubicin was added to the wells (0.1% final DMSO concentration). Cells were returned to the incubator for 24 hrs. On the day of analysis 1×10^5 cells were labeled according to manufacturer's instructions and analyzed by flow cytometry (BD FACSCaalibur™, GH) to determine the percent of apoptotic cells (annexin V positive, AV+) and/or apoptotic dead cells (AV+ and propidium iodide positive (PI+)).

The test system of the next test is P-PDK1. Put plainly: Pathway modulation in MV4-11 tumor xenografts, pPDK1. In kind it is in vivo, mice. The settings on record: MV4-11 tumors, IP 50 mg/kg.
The next test concerns C1498. Kind of test: MTS cell proliferation assay, C1498. In kind it is cell-based, murine. The settings on record: Mus musculus, C1498, 72 h, read-out: MTS proliferation assay (μM). On the procedure: as §1
The next test deals with Molm-13. Put plainly: MTS cell proliferation assay, Molm-13. In kind it is cell-based. The note with it: Homo sapiens; Molm-13, 72 hr. On the procedure: as §2
The subject of another test is P-AKT. Put plainly: Western blot, AKT phosphorylation in A20 cells. In kind it is cell-based, murine. On the procedure: For phosphoprotein analyses, cells were seeded into 10 cm petri dishes (10×10^6 cells/dish) in media supplemented with 10% FBS and penicillin/streptomycin. After cells recovered for 1 hr at 37° C., compounds were added in DMSO (0.1% final) and incubated for 4 or 24 hr at 37° C. Cells were then harvested by centrifugation and washed with cold PBS. Cell pellets were resuspended in cell extraction buffer (Invitrogen) supplemented with 2×Halt™ protease and phosphatase inhibitor cocktail (Thermo Scientific), 2 mM sodium orthovanadate, 10 mM EDTA and 4 mM PMSF. Samples were lysed by sonication and incubated on ice for 30 min. Cell debris was removed by centrifugation and protein concentrations were determined using the BCA Protein Assay Kit (Pierce). The clarified lysate was diluted in LDS sample buffer with reducing agent (Life Technologies). […] Gels were run at 110 V and proteins were transferred to a PVDF membrane. Membranes were blocked in TBS blocking buffer (Li-Cor Biosciences) for 1 hr. Primary antibodies (Cell Signaling, Sant Cruz Biotechnology) were added (1:1,000 dilution) in blocking buffer with 0.1% Tween-20 and 1:20,000 dilution of β-actin antibody and incubated for 14 hr at 4° C. Blots were washed in TBS-T. Label-conjugated goat anti-rabbit secondary antibody (IRdye® 800CW; Li-Cor Biosciences) was added in blocking buffer with 0.1% Tween-20 and 0.02% SDS and incubated for 1 hr. After washing in TBS-T followed by TBS, membranes were scanned on an Odyssey imaging system (Li-Cor Biosciences). Bands were quantitated using ImageJ.
For orientation: In western blotting, separated proteins are transferred to a membrane and probed.

Test [2] concerns hematologic tumor cell lines. Put plainly: MTS cell proliferation assay, panel of hematologic cancer cell lines. The note with it: 72 hrs, percent of control. In kind it is cell-based. On the procedure: as §2
Test [3] deals with T1, Full-length phosphorylated PDK1. Put plainly: FRET-based PIF-tide binding assay. The settings on record: 10 nM compound where stated, FIG. 13D.

pEC50: −log10 of the molar value. A value given as a limit tells only on which side of the number the result lay.

Source text for P-PDK1: MV4-11 cells propagated in vitro were implanted subcutaneous into the right flank of 9-week old female NCr nu/nu mice. On the day of implant, MV4-11 cells were harvested during log phase growth and resuspended in phosphate buffered saline (PBS) containing 50% Matrigel™ (BD Biosciences) at a concentration of 1×10^8 cells/mL. […] Two weeks after implantation, animals were assigned to individual groups of 3 animals with and average tumor volume of approximately 200 mm^3. […] Eight hours post-dose, full blood volume was collected by cardiac puncture under isoflurane anesthesia and tumors were excised and snapfrozen in liquid nitrogen and stored at −80° C. until further analysis. Tumors were pulverized in liquid nitrogen using a Biopulverizer and split into two sample tubes: one for Western blot analysis and one for analysis of compound levels by LC-MS/MS. […] For MS analysis, tumor samples were homogenized with a Virsonic 100 ultrasonic homogenizer. Each sample was first weighed, and then an appropriate volume of 20:80 methanol:water was added to make a 9 mL/gram sample. Samples were then homogenized on ice, and stored frozen until analysis. Standards were prepared in BALB/c mouse plasma or blank homogenized tumor tissue. Standards and samples were analyzed on a PE Sciex API4000 instrument and compound concentration was quantified and back-calculated to ng compound per g tumor tissue and converted to M concentration assuming 1 g tumor tissue equals 1 mL volume.

Regarding `O=C(NCCCNc1nc(Nc2cccc(NC(=O)N3CCCC3)c2)ncc1I)c1cccs1` [BX-795, reference compound], the “PIF-tide binding to PDK1 (fluorescence polarization, words)” value in [1] was “no interference with PIF-tide binding”.

As usually defined, the pEC50 is −log10 of the EC50, conventionally taken in molar units. Higher therefore signals a low EC50. With `CNc1nc(-c2ccc3c(N)n[nH]c3c2)cc(N2C[C@@H](C(=O)NC3CCCCC3)CC[C@H]2C)n1` [GSK2334470, reference compound], the results for the EC50 in the test on MV4-11 and in the test with C1498 were 0.105 µM and 0.358 µM, respectively. In addition, the pEC50 with Jeko was 5.65; in the test on A20, 6.31; in the test on U-2932, 6.01; with RPMI-8226, 5.54; with Molm-13, 6.44. Moreover, in the test on MV4-11 cells (100 nM), the “apoptosis at 100 nM” value is recorded as “no evidence of apoptosis”. The concentration inducing apoptosis with MV4-11 cells (24 hrs) is listed as above 300 nM. In addition, the “pathway modulation and tumor exposure” value with P-PDK1 was “comparable to that of 50 mg/kg GDC0941 and 1 mg/kg Compound 1 or Compound 2”. Moreover, in the test with P-AKT, the “P-AKT levels” value is given as “barely affected”.

As for `COc1cccc2c1C(=O)c1c(O)c3c(c(O)c1C2=O)C[C@@](O)(C(=O)CO)C[C@@H]3O[C@H]1C[C@H](N)[C@H](O)[C@H](C)O1` [doxorubicin, reference compound], in [2], the “plateau of growth inhibition curve at higher concentrations” value is given as below 20%.

Regarding `CN[C@@H]1C[C@H]2O[C@@](C)([C@@H]1OC)n1c3ccccc3c3c4c(c5c6ccccc6n2c5c31)C(=O)NC4` [staurosporine, reference compound], the “FRET between PDK1 and PIF-tide” value in test [3] is “does not inhibit FRET”.
